# According to PubChem BioAssay AID328 (DTP/NCI, 2004):
# Where “and” joins values, the source holds several entries; their conditions need not be identical. Equal values may be shown once. Toxic doses and inconclusive results are not listed.
# Tested on: BDF1 mice, P388 leukemia ip, median survival T/C
# Assay: NCI In Vivo Anticancer Drug Screen. Data for tumor model P388 Leukemia (intraperitoneal) in B6D2F1 (BDF1) mice
# Conditions: endpoint: median survival time, higher = longer survival
# Outline: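 Read-out is survival of treated animals expressed relative to the vehicle group, as a T/C ratio.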
# [1] = dose: 25.0 mg/kg/injection, schedule: Q01DX009 (ip), vehicle: saline
# [2] = dose: 50.0 mg/kg/injection, schedule: Q01DX009 (ip), vehicle: saline
# [3] = dose: 50.0 mg/kg/injection, schedule: Q04DX003 (ip), vehicle: saline
# [4] = dose: 100.0 mg/kg/injection, schedule: Q01DX009 (ip), vehicle: saline
# [5] = dose: 200.0 mg/kg/injection, schedule: Q01DX009 (ip), vehicle: saline
# [6] = dose: 200.0 mg/kg/injection, schedule: Q04DX003 (ip), vehicle: saline
# [7] = dose: 400.0 mg/kg/injection, schedule: Q04DX003 (ip), vehicle: saline
# [8] = dose: 50.0 mg/kg/injection, schedule: Q01DX009 (ip), vehicle: saline with Tween-80
# [9] = dose: 100.0 mg/kg/injection, schedule: Q01DX009 (ip), vehicle: saline with Tween-80
# [10] = dose: 3.12 mg/kg/injection, schedule: Q01DX009 (ip), vehicle: Klucel (hydroxypropylcellulose) (HPC)
# [11] = dose: 6.25 mg/kg/injection, schedule: Q01DX009 (ip), vehicle: saline
# [12] = dose: 12.5 mg/kg/injection, schedule: Q01DX009 (ip), vehicle: Klucel (hydroxypropylcellulose) (HPC)
# [13] = dose: 12.5 mg/kg/injection, schedule: Q01DX009 (ip), vehicle: saline
# [14] = dose: 100.0 mg/kg/injection, schedule: Q04DX003 (ip), vehicle: saline with Tween-80
# [15] = dose: 400.0 mg/kg/injection, schedule: Q04DX003 (ip), vehicle: saline with Tween-80
# [16] = dose: 200.0 mg/kg/injection, schedule: Q04DX003 (ip), vehicle: saline with Tween-80
# [17] = dose: 400.0 mg/kg/injection, schedule: Q01DX009 (ip), vehicle: saline
# [18] = dose: 200.0 mg/kg/injection, schedule: Q01DX009 (ip), vehicle: saline with Tween-80
smiles,measurement,setting,value
COc1ccc(C=[N+](C)CCc2ccc(OC)c(OC)c2)cc1OC,T/C,[1],95 % of control
same,T/C,[2],101 % of control
same,T/C,[3],106 % of control
same,T/C,[4],100 % of control
same,T/C,"dose: 100.0 mg/kg/injection, schedule: Q04DX003 (ip), vehicle: saline",102 % of control
same,T/C,[5],116 % of control
same,T/C,[6],100 % of control
same,T/C,[7],106 % of control
CN(C)c1ccc(/C=C/c2ccnc3c(-c4ccccc4)cccc23)cc1,T/C,[8],89 % of control
same,T/C,[9],91 % of control
OC1CCCC2CCC[N-]C12.OC1CCCC2CCC[N-]C12.[O]=[V][OH] (stereo not drawn),T/C,[10],100 % of control
same,T/C,"dose: 6.25 mg/kg/injection, schedule: Q01DX009 (ip), vehicle: Klucel (hydroxypropylcellulose) (HPC)",95 % of control
same,T/C,[11],110 % of control
same,T/C,[12],100 % of control
same,T/C,[13],150 % of control
same,T/C,"dose: 25.0 mg/kg/injection, schedule: Q01DX009 (ip), vehicle: Klucel (hydroxypropylcellulose) (HPC)",100 % of control
O=S(=O)(NC1CCCCC1)c1ccccc1,T/C,"dose: 75.0 mg/kg/injection, schedule: Q01DX009 (ip), vehicle: saline with Tween-80",90 % of control
same,T/C,[14],95 % of control
same,T/C,"dose: 150.0 mg/kg/injection, schedule: Q01DX009 (ip), vehicle: saline with Tween-80",90 % of control
same,T/C,"dose: 300.0 mg/kg/injection, schedule: Q01DX009 (ip), vehicle: saline with Tween-80",95 % of control
same,T/C,[15],100 % of control
COc1cc(C=Nc2cc(Cl)cc(Cl)c2)ccc1N(CCCl)CCCl,T/C,"dose: 132.0 mg/kg/injection, schedule: Q04DX003 (ip), vehicle: saline with Tween-80",163 % of control
same,T/C,[16],177 % of control
same,T/C,"dose: 300.0 mg/kg/injection, schedule: Q04DX003 (ip), vehicle: saline with Tween-80",177 % of control
O=C(CCC(=O)[O][Sn]([c]1ccccc1)([c]1ccccc1)[c]1ccccc1)[O][Sn]([c]1ccccc1)([c]1ccccc1)[c]1ccccc1,T/C,"dose: 0.39 mg/kg/injection, schedule: Q01DX009 (ip), vehicle: Klucel (hydroxypropylcellulose) (HPC)",113 % of control
same,T/C,"dose: 0.78 mg/kg/injection, schedule: Q01DX009 (ip), vehicle: Klucel (hydroxypropylcellulose) (HPC)",95 % of control
same,T/C,"dose: 1.56 mg/kg/injection, schedule: Q01DX009 (ip), vehicle: Klucel (hydroxypropylcellulose) (HPC)",95 % of control
same,T/C,[10],100 % of control and 104 % of control
same,T/C,[12],120 % of control
same,T/C,"dose: 40.0 mg/kg/injection, schedule: Q04DX003 (ip), vehicle: Klucel (hydroxypropylcellulose) (HPC)",104 % of control
COc1ccc(CN(C(C)=O)c2cc(C)c([N+](=O)[O-])cc2OC)cc1OC,T/C,[1],103 % of control
same,T/C,"dose: 25.0 mg/kg/injection, schedule: Q04DX003 (ip), vehicle: saline",87 % of control and 107 % of control
same,T/C,[2],87 % of control
same,T/C,[3],88 % of control and 107 % of control
same,T/C,[4],111 % of control
same,T/C,"dose: 150.0 mg/kg/injection, schedule: Q04DX003 (ip), vehicle: saline",106 % of control
same,T/C,[5],108 % of control
same,T/C,[6],99 % of control and 107 % of control
same,T/C,"dose: 300.0 mg/kg/injection, schedule: Q04DX003 (ip), vehicle: saline",114 % of control
same,T/C,[17],100 % of control
same,T/C,[7],100 % of control
COc1cc2cc3c4cc(OC)c(OC)cc4cc[n+]3c(CCC(=O)O)c2cc1OC (tested in a mixture with another compound),T/C,"dose: 100.0 mg/kg/injection, schedule: Q01DX009 (ip), vehicle: Klucel (hydroxypropylcellulose) (HPC)",92 % of control
same,T/C,"dose: 200.0 mg/kg/injection, schedule: Q01DX009 (ip), vehicle: Klucel (hydroxypropylcellulose) (HPC)",119 % of control
CN(C)c1cc2c3c(c1)CCCN3CCC2,T/C,"dose: 3.13 mg/kg/injection, schedule: Q01DX009 (ip), vehicle: saline",95 % of control
same,T/C,[11],100 % of control
same,T/C,[13],113 % of control
CCOc1ccc(C(/C(Cl)=N/O)C(Cl)(Cl)Cl)cc1 (stereo not drawn),T/C,"dose: 5.5 mg/kg/injection, schedule: Q01DX009 (ip), vehicle: Klucel (hydroxypropylcellulose) (HPC)",109 % of control
same,T/C,"dose: 6.25 mg/kg/injection, schedule: Q04DX003 (ip), vehicle: Klucel (hydroxypropylcellulose) (HPC)",100 % of control
same,T/C,"dose: 8.2 mg/kg/injection, schedule: Q01DX009 (ip), vehicle: Klucel (hydroxypropylcellulose) (HPC)",100 % of control
same,T/C,"dose: 12.5 mg/kg/injection, schedule: Q04DX003 (ip), vehicle: Klucel (hydroxypropylcellulose) (HPC)",95 % of control
same,T/C,"dose: 25.0 mg/kg/injection, schedule: Q04DX003 (ip), vehicle: Klucel (hydroxypropylcellulose) (HPC)",100 % of control
same,T/C,"dose: 35.0 mg/kg/injection, schedule: Q04DX003 (ip), vehicle: Klucel (hydroxypropylcellulose) (HPC)",120 % of control
same,T/C,"dose: 55.0 mg/kg/injection, schedule: Q04DX003 (ip), vehicle: Klucel (hydroxypropylcellulose) (HPC)",110 % of control
same,T/C,"dose: 80.0 mg/kg/injection, schedule: Q04DX003 (ip), vehicle: Klucel (hydroxypropylcellulose) (HPC)",110 % of control
same,T/C,"dose: 120.0 mg/kg/injection, schedule: Q04DX003 (ip), vehicle: Klucel (hydroxypropylcellulose) (HPC)",100 % of control
CC(C)(O)/C=C/C(=O)C(C)(O)C1C(O)CC2(C)C3CC=C4C(CC(O)C(O)C4(C)C)C3(C)C(=O)CC12C (stereo not drawn),T/C,"dose: 0.25 mg/kg/injection, schedule: Q01DX010 (ip), vehicle: carboxymethylcellulose (CMC)",100 % of control
same,T/C,"dose: 0.5 mg/kg/injection, schedule: Q01DX010 (ip), vehicle: carboxymethylcellulose (CMC)",105 % of control
same,T/C,"dose: 1.0 mg/kg/injection, schedule: Q01DX010 (ip), vehicle: carboxymethylcellulose (CMC)",95 % of control
same,T/C,"dose: 2.0 mg/kg/injection, schedule: Q01DX010 (ip), vehicle: carboxymethylcellulose (CMC)",110 % of control
Cn1c[n+](C)ccc1=O,T/C,"dose: 100.0 mg/kg/injection, schedule: Q01DX009 (ip), vehicle: water",97 % of control
same,T/C,"dose: 100.0 mg/kg/injection, schedule: Q04DX003 (ip), vehicle: water",91 % of control
same,T/C,"dose: 200.0 mg/kg/injection, schedule: Q01DX009 (ip), vehicle: water",107 % of control
same,T/C,"dose: 200.0 mg/kg/injection, schedule: Q04DX003 (ip), vehicle: water",88 % of control
same,T/C,"dose: 400.0 mg/kg/injection, schedule: Q01DX009 (ip), vehicle: water",97 % of control
same,T/C,"dose: 400.0 mg/kg/injection, schedule: Q04DX003 (ip), vehicle: water",89 % of control
COc1ccc(C2CCc3cc4c(cc3/C2=N/O)OCO4)cc1OC (stereo not drawn),T/C,[9],104 % of control
same,T/C,[14],100 % of control
same,T/C,[18],104 % of control
same,T/C,[16],100 % of control
same,T/C,"dose: 400.0 mg/kg/injection, schedule: Q01DX009 (ip), vehicle: saline with Tween-80",95 % of control
same,T/C,[15],90 % of control
O=S(=O)(O)c1ccc(CCCCCCl)cc1,T/C,[1],109 % of control
same,T/C,[2],100 % of control
same,T/C,"dose: 100.0 mg/kg/injection, schedule: Q01DX001 (ip), vehicle: saline",110 % of control
same,T/C,[4],104 % of control and 110 % of control
same,T/C,"dose: 200.0 mg/kg/injection, schedule: Q01DX001 (ip), vehicle: saline",90 % of control
same,T/C,[5],100 % of control
same,T/C,"dose: 400.0 mg/kg/injection, schedule: Q01DX001 (ip), vehicle: saline",90 % of control
same,T/C,[17],110 % of control
CCCCOn1nnc2cc(Cl)ccc21,T/C,[8],97 % of control
same,T/C,[9],101 % of control
same,T/C,[18],117 % of control
NC1C(O)C(O)C(Nc2ncnc3nc[nH]c23)OC1C(O)CO (stereo not drawn),T/C,"dose: 1.5 mg/kg/injection, schedule: Q01DX010 (ip), vehicle: saline",105 % of control
same,T/C,"dose: 3.0 mg/kg/injection, schedule: Q01DX010 (ip), vehicle: saline",105 % of control
same,T/C,"dose: 6.0 mg/kg/injection, schedule: Q01DX010 (ip), vehicle: saline",100 % of control
same,T/C,"dose: 12.0 mg/kg/injection, schedule: Q01DX010 (ip), vehicle: saline",95 % of control
same,T/C,"dose: 24.0 mg/kg/injection, schedule: Q01DX010 (ip), vehicle: saline",110 % of control
same,T/C,"dose: 48.0 mg/kg/injection, schedule: Q01DX010 (ip), vehicle: saline",105 % of control
